Article PMC3923053, “Effects of Various Phytochemicals on Indoleamine 2,3-Dioxygenase 1 Activity: Galanal Is a Novel, Competitive Inhibitor of the Enzyme” (PLoS ONE, 2014)

Molecular target: T1, Indoleamine 2,3-dioxygenase 1 (IDO1) (Homo sapiens, UniProt P14902)
T1 construct: recombinant human IDO1, N-His-tag, expressed in E. coli
Assay: methylene blue/ascorbate assay of purified recombinant IDO1, HPLC; Lineweaver-Burk kinetics
Assay type: biochemical

T1 sequence (P14902 whole entry): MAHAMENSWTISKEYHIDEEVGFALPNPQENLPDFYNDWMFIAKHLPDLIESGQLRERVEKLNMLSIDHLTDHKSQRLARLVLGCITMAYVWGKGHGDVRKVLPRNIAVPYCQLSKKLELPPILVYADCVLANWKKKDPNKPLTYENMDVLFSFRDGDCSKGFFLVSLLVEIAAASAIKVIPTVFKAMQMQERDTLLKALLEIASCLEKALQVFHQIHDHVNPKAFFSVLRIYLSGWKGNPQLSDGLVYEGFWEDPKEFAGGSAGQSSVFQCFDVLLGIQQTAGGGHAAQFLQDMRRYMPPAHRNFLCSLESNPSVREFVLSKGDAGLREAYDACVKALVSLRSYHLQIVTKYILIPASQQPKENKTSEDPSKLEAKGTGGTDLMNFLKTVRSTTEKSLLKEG

IC50: 7.7 µM
Substance: galanal
